# Laboratory results: patent US20040171627A1, “Treatment of renal fibrosis” (Hadasit, priority 2001, published 2004)
# “And” between values parts separate entries of the source, which are not always exact repeats. Equal values may be shown once. “Also recorded” adds a separate entry of the source.
# Key:
# [1] = tested on: RMR rats (5/6 nephrectomy); assay: Protein concentration in urine (proteinuria) of RMR rats; assay type: in vivo, Male Wistar rats; settings: halofuginone 0.2 mg/kg/day oral, statistically significant from week 5 post-nephrectomy on (FIG. 2)
# Procedure: Male Wistar rats (weighing 300±30 g at the start of the experiment) were used in this study. They were allowed to acclimatize to their environment for one week. Rats were assigned to undergo renal mass reduction (RMR) by 5/6 nephrectomy or Sham operation, under anesthesia with intraperitoneal injection of pentobarbital (35 mg/kg body weight). RMR was performed by ligature of 2 of 3 major branches of the left renal artery and right nephrectomy in the same session. Sham rats have undergone exposition of the kidneys and removal of the peri-renal fat. After 24 hours recovery the rats were assigned to one of the following groups: 1) Group I: RMR rats, oral gavage with halofuginone 0.2 mg/kg/day started 24 hours post surgery. 2) Group II: RMR rats, oral gavage with normal saline daily, started 24 hours post surgery. 3) Group III: age matched, sham operated rats served as the controls. […] Every week, systolic blood pressure was measured by tail cuff manometry and urine samples were collected individually in metabolic cages for determination of total protein and creatinine excretion. Protein concentration in urine was determined by a colorimetric method using pyrogallol-red molybdate complex (cobas integra 700, Roche). Body weight was also measured. […] Serum creatinine was measured with a Hitachi model 747 autoanalyzer, using the kinetic Jaffe method.
# [2] = tested on: RMR rats (5/6 nephrectomy), renal fibrosis; assay: Light microscopy of kidneys after 5/6 nephrectomy (RMR) in rats, semi-quantitative histological evaluation; assay type: in vivo, Male Wistar rats
# Procedure: A solution of halofuginone was prepared by dissolution of powder of halofuginone hydrobromide in aqueous media containing suitable buffer. Male Wistar rats (weighing 300±30 g at the start of the experiment) were used in this study after being allowed to acclimatize to their environment for one week. Rats were assigned to undergo renal mass reduction (RMR) by 5/6 nephrectomy or sham operation, under anesthesia with intraperitoneal injection of pentobarbital (35 mg/kg body weight). RMR was performed by ligature of 2 of 3 major branches of the left renal artery and right nephrectomy in the same session. Sham rats undergo exposure of the kidneys and removal of the peri-renal fat, without undergoing RMR. After 24 hours recovery of the rats were assigned to one of the following groups: 1) Group I: RMR rats, oral gavage with halofuginone 0.2 mg/kg/day started 24 hours post surgery. 2) Group II: RMR rats, oral gavage with normal saline daily, started 24 hours post surgery. 3) Group III: age matched, sham operated rats served as the controls. All animals were allowed free access to a standard diet and water ad libitum. At sacrifice (10 weeks after RMR), kidneys were removed and processed for in situ hybridization, immunohistochemistry and histological evaluation. Light microscopy studies: specimens were fixed in 10% buffered formaldehyde and embedded in paraffin. Histological sections of 4-5μ thickness were stained with hematoxylin-eosin (HES), periodic acid Schiff (PAS) and Masson trichrome (light green). A semi-quantitative score was used to evaluate the degree of glomerulosclerosis, mesangial expansion and proliferation and tubulo-interstitial changes. A minimum of 30 glomeruli in each specimen was examined and the severity of the lesions was graded from 0 to 4+, according to the percentage of glomerular involvement. […] An injury score was obtained by multiplying the degree of damage (0-4+) by the percentage of glomeruli with the same degree of lesions. The evaluation of tubulointerstitial fibrosis was performed with the point-counting method using a Zeiss I integrating eyepiece.
smiles,measurement,setting,value
"O=C(CC1NCCC[C@H]1O)Cn1cnc2cc(Br)c(Cl)cc2c1=O (stereo in doubt) [Halofuginone, 7-bromo-6-chloro-3-[3-(3-hydroxy-2-piperidinyl)-2-oxopropyl]-4(3H)-quinazolinone]",levels of proteinuria versus control nephrectomized group,[1],lower levels of proteinuria
same,tubulointerstitial fibrosis compared to the control group,"[2]; halofuginone 0.2 mg/kg/day oral, RMR rats, 10 weeks",significant decrease
same,presence of glomerulosclerosis and mesangial proliferation,"[2]; halofuginone 0.2 mg/kg/day oral, RMR rats, 10 weeks, versus control",less accentuated
same,Tubules,"[2]; individual rats of Group I, halofuginone 0.2 mg/kg/day oral gavage, 10 weeks after RMR, light microscopy",Normal; also recorded: Few atrophic
same,Glomerulus Proliferation,"[2]; individual rats of Group I, halofuginone 0.2 mg/kg/day oral gavage, 10 weeks after RMR, light microscopy (preliminary results)",Mild (4×) and Moderate (2×)
same,Glomerulus Sclerosis,"[2]; individual rats of Group I, halofuginone 0.2 mg/kg/day oral gavage, 10 weeks after RMR, light microscopy, graded 0 to 4+",0
